Experimental data taken from patent US11596623B2, “Methods for treating virus infection or proliferation” (HOWARD UNIVERSITY, priority 2018, dated 2023).
“Also recorded” adds a separate entry of the source.

Key:
EV-D68 = EV-D68 VP1 western assay in HEp-2 cells; type: cell-based; conditions: 48 h; for EV-D68 proliferation / major structural protein VP1: HEp-2 cells, western
Description: (§1) HEp-2 cells were grown to 80-90% confluency in Dulbecco's Modified Eagle's medium (DMEM) supplemented with 10% fetal calf serum (FCS) and 1% penicillin-streptomycin (PS) and fungicide. The virus and the indicated concentration of compounds were added and incubated for 48 h. After washing with PBS, the cell lysates were collected and were run in a Biorad XT-Criterion gel and transferred to a PVDF membrane. The membrane was blotted with an antibody directed against the EVD68 major structural protein VP1 purchased from Genetex (Irvine, Calif.). An anti-mouse IgG-HRP secondary antibody and Biorad's Western ECL substrate-Clarity was used to label the bands and the image was obtained in a Biorad Gel doc system. […] The tubulin antibody was used as the loading control.
HEp-2 cells were grown to 80-90% confluency in Dulbecco's Modified Eagle's medium (DMEM) supplemented with 10% fetal calf serum (PCS) and 1% penicillin-streptomycin (PS) and 1% fungicide. The EV-D68 virus and the indicated concentration of compounds were added and incubated for 48 h. After washing with PBS, the cell lysates were collected and were run in a Biorad Stain free TGX gel and were transferred to a PVDF membrane. The membrane was blotted with an antibody directed against the EV-D68 major structural protein VP1 purchased from Genetex (Irvine, Calif.). An antimouse IgG-HRP secondary antibody and Biorad's Western ECL substrate-Clarity was used to label the bands and the image was obtained in a Biorad Gel doc system. […] The non-specific band high above the VP1 band indicate that all virus treated lanes were loaded with equal amount of lysates. The identity of the EV-D68 VP1 protein is confirmed by the lack of the 33 kD band in the no virus lane.
HEp-2 cells were grown to 80-90% confluency in Dulbecco's Modified Eagle's medium (DMEM) supplemented with 10% fetal calf serum FCS and 1% penicillin-streptomycin (PS) and fungicide. The representative virus (EV-D68) and the indicated concentration of compounds were added and incubated for 48 h. […]

RACK1 = target: T1, RACK1 (Homo sapiens, UniProt P63244); assay: RACK1 protein western in EV-D68 infected HEp-2 cells; type: cell-based; conditions: 48 h
T1 construct: endogenous in cells; host or cells: HEp-2 cells (human laryngeal carcinoma line), virus-infected
Description: as §1
HEp-2 cells were grown to 80-90% confluency in Dulbecco's Modified Eagle's medium (DMEM) supplemented with 10% fetal calf serum FCS and 1% penicillin-streptomycin (PS) and fungicide. The representative virus (EV-D68) and the indicated concentration of compounds were added and incubated for 48 h. After washing with PBS, the cell lysates were collected and were run in a Biorad XT-Criterion gel and transferred to a PVDF membrane. The membrane was blotted with an antibody directed against the EV-D68 major structural protein VP1 purchased from Genetex (Irvine, Calif.). […]

HSV-1 [1] = assay: HSV-1 cytopathic effect in HEp-2 cells under microscope; type: cell-based; conditions: 24 h, different concentrations, versus DMSO
Description: The HSV-1 virus and the indicated concentration of compounds were added and incubated for 24 h. After washing way the virus with PBS, image was taken under a compound microscope.

RACK1A protein = assay: RACK1 protein expression under salt stress, western blot; type: in vivo; conditions: Arabidopsis lysates
Excerpt: The abundant leaf protein Rubisco large subunit (RbcL) was used as a loading control for the blot. The 37 kD RACK1 band was absent from the genetic knockout of RACK1 plants (double mutant-rack1ab lane).
The reported positive expression of RACK1A protein under salt stress condition in Arabidopsis has led us to examine the RACK1A expression in the presence and absence of the inhibitor compounds during salt stresses. We determined that the RACK1A protein expression was specifically modulated by the inhibitor compounds when the lysates with salt or without salt in the presence and absence of the small compounds were probed with an antibody raised by using the full length RACK1A protein as antigen (Agrisera, Vännäs, Sweden, FIG. 2C). […] However, whether the effect of SD29-12 is Arabidopsis salt stress specific condition needs further experimental evidence. As the antibody cross-reacts with all three RACK1 isoforms in Arabidopsis, we used the double knockout (rack1ab) as a negative control on the blot (triple mutant is lethal at the early seedling stage). The large subunit of the abundant leaf protein rubisco (RbcL) was used as loading control for this blot. As the results support the in-silico based prediction, we set out to investigate the effect of the compounds on the mammalian RACK1 based virus proliferation.

HSV-1 [2] = assay: Plaque formation unit (pfu) assay; type: cell-based
Description: The viral plaque assay was performed as previously described [Tang Q, Li L, Ishov A M, Revol V, Epstein A L, Maul G G. Determination of minimum herpes simplex virus type 1 components necessary to localize transcriptionally active DNA to ND10. J Virol. 2003; 77:5821-28.] with slight modifications. The HSV-1 strain 17 was diluted serially in a volume of 1 mL. Then 300 ul of the virus was added onto confluent HEp-2 cell monolayers in 12-well plates; each dilution had 3 wells. After adsorption for 2 h, the medium was removed and the cells were washed twice with serum-free DMEM and overlaid with phenol-free DMEM containing 5% FCS, 0.5% low-melting point agarose (GIBCO), and 1% penicillin-streptomycin. The cells were incubated at 37° C. for 48 hours. Neutral red was added on the agarose to stain the live cells. The plaques were counted and reported as pfu per mL. Mean pfu was determined after averaging the number of pfu from different dilutions. Student's t-tests were used to statistically analyze differences between the groups; a p-value lower than 0.005 was used as the threshold for a significant difference.
To assess the efficacy of SD-29 on the HSV-1 proliferation, a plaque assay was performed. We wanted to quantitatively assess whether SD-29 could inhibit viral replication. Because HSV-1 was able to enter cultured HEp-2 cells, we evaluated whether this entry led to productive virus replication.
In Table 1, confluent monolayers of HEp-2 cells were infected with serially diluted HSV-1 virus and were fixed and Giemsa stained at 0, 6, 12, and 24 hr post infection. The numbers of plaques were visualized. The number of plaques formed post infection decreased in the presence of SD-29 in a time-dependent manner.

Compound	EV-D68 proliferation / major structural protein VP1 (EV-D68)	EV-D68 proliferation / major structural protein VP1 (EV-D68; listed as SD 29-14)	efficacy in inhibiting EV-D68 compared with SD29 and SD29-12 (EV-D68; VP1 western)	RACK1 protein level (RACK1)	cytopathic effect of HSV-1 (HSV-1 [1])	RACK1 protein expression under salt stress (RACK1A protein)	Plaque formation unit (HSV-1 [2]; 0 hpi) [PFU/mL]	Plaque formation unit (HSV-1 [2]; 6 hpi) [PFU/mL]	Plaque formation unit (HSV-1 [2]; 12 hpi)	Plaque formation unit (HSV-1 [2]; 24 hpi)	production of infectious virions (HSV-1 [2]; infected HEp-2 cells, versus DMSO)
Nn1c(S)nnc1-c1cc(Cl)cc(Cl)c1 [SD29-14]	inhibits EV-D68 proliferation in a dose dependent way; also recorded: effectively inhibited the viral major structural protein VP1	inhibits proliferation of a representative virus (EV-D68), in a dose dependent way	better efficacy	loss of RACK1 protein	do not show the cytopathic effect	–	–	–	–	–	–
Nn1c(S)nnc1-c1ccc(F)cc1 [SD-29]	–	–	–	–	–	inhibited RACK1 protein expression	0 ± 0	0 ± 0	1 ± 0.08 × 10^2 PFU/mL	1.8 ± 0.04 × 10^5 PFU/mL	failed to produce significant infectious virions
